Measurements reported in patent publication US9023789B2, “Amylin analogs and pharmaceutical compositions thereof” (Novo Nordisk A/S, priority 2012, dated 2015).
pEC50, pIC50: −log10 of the molar value. In brackets after ≈: the same amount, converted by molar mass. Like-named read-outs stand apart in the source and are kept apart here. Numbered stars: 1 amine (or outer) side, 2 acyl side, 3 side chain; on linkers, the order of the positions; unused ones are H or OH. Bridge positions count the residues as written; N and C are the ends. Peptide text beside a SMILES is read from it. * marks the point of attachment. C20 diacid = O=C(O)CCCCCCCCCCCCCCCCCCC(=O)*; γGlu = O=C(O)[C@H](CCC(=O)[*:2])N[*:1]

Tests used:
[1] = molecular target: T1, human calcitonin (a) receptor in BHK570 cells (Homo sapiens, UniProt P30988); assay: ASSAY (II)a functional assay, human calcitonin receptor (CRE luciferase); type: cell-based; conditions: read-out: hCTR funct. EC50
T1 construct: expressed in transfected cells
T1 sequence (P30988 25-474): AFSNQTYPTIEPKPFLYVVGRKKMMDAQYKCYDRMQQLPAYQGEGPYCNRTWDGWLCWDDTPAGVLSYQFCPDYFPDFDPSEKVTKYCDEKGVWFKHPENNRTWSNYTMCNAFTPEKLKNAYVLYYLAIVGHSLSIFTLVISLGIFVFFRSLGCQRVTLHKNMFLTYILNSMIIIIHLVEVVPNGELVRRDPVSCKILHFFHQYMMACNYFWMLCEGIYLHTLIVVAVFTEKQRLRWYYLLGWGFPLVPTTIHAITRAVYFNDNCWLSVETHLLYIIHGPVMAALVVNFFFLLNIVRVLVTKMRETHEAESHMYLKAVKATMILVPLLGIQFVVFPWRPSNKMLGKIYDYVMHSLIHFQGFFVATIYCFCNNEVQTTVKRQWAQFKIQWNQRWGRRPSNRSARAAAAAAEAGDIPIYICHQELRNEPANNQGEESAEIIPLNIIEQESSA
Outline: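 Readout is luminescence from a cAMP-responsive CRE-luc reporter, developed with LucLite for 30 min at room temperature. Cells were treated for 3 h at 37 °C in 10% FBS/DMEM buffered with 10 mM Hepes (pH 7.4).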

[2] = ASSAY (IV) determination of solubility; type: physicochemical
Outline: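 Samples of polypeptide, prepared from a water stock at […] and diluted 1:1 into 100 mM buffers spanning pH 3.0 to 8.0, stood 18 hours at room temperature. Polypeptide concentration was then determined by UPLC following centrifugation.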

[3] = molecular target: T2, human amylin receptor (membranes from Amylin 3(a)/CRE-luc cells) (Homo sapiens, UniProt O60896+P30988); assay: ASSAY (V) binding to the human amylin receptor (SPA, 125I-rat amylin); conditions: for pIC50: Table 4, read-out: hAmylin-R bind IC50;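 on all read-outs here: competition binding of cell membranes (35 ng/µL) mixed with SPA beads in 384-well plates at 40 µL total volume, read by scintillation counting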
T2 construct: expressed in transfected cells
T2 sequence (P30988 25-474): T1 sequence (P30988 25-474)
T2 sequence (O60896 24-148 partner): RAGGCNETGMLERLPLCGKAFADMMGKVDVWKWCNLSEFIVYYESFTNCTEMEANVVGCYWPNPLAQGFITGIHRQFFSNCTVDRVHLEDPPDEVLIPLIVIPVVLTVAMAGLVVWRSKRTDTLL

[4] = molecular target: T3, human calcitonin receptor (Homo sapiens, UniProt P30988); assay: ASSAY (VII) binding to the human calcitonin receptor (SPA, 125I-Calcitonin); conditions: read-out: hCTR bind IC50;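 further: cell membranes (35 ng/µL) combined with SPA beads in 40 µL of pH 7.4 Hepes buffer, 384-well format, signal counted on a TopCounter instrument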
T3 construct: expressed in transfected cells
T3 sequence (P30988 25-474): T1 sequence (P30988 25-474)

[5] = molecular target: T4, rat amylin receptor (rat calcitonin receptor + rat RAMP 3) (Rattus norvegicus, UniProt P32214+Q9JJ73); assay: ASSAY (VI) binding to the rat amylin receptor
T4 construct: expressed in transfected cells; host or cells: BHK tk'ts 13 (transient, FuGENE 6), membranes
T4 sequence (P32214 25-479 isoform P32214-2 limits assumed): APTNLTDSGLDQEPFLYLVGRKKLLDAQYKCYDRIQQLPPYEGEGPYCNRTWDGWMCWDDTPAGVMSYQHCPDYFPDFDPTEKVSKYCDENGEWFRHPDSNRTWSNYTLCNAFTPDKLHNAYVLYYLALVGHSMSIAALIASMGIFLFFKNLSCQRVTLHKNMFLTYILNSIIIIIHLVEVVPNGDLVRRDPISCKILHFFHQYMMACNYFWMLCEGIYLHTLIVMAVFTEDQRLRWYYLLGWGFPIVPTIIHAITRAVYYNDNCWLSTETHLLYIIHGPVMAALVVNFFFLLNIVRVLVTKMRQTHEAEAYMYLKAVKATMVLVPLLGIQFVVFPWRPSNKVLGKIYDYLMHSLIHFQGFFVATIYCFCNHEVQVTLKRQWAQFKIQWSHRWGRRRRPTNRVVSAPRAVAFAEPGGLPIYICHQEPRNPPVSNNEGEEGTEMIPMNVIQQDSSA
T4 sequence (Q9JJ73 23-147 partner): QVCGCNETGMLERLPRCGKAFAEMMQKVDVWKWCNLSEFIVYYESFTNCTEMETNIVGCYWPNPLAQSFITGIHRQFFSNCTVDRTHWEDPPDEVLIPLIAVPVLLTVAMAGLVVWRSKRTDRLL
Outline: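 Membranes for this rat amylin receptor binding assay came from BHK tk′ts 13 cells. The cells were transiently transfected with rat calcitonin receptor using the FuGENE® 6 reagent from Roche, as the manufacturer recommends. The cells were collected approximately 48 hours after transfection, and membranes were then prepared.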

rat calcitonin receptor = molecular target: T5, rat calcitonin receptor (Rattus norvegicus, UniProt P32214); assay: ASSAY (VIII) binding to the rat calcitonin receptor; conditions: Table 7, read-out: rCTR bind IC50
T5 construct: expressed in transfected cells; host or cells: BHK tk'ts 13 (transient, FuGENE 6), membranes
T5 sequence (P32214 25-479 isoform P32214-2 limits assumed): T4 sequence (P32214 25-479 isoform P32214-2 limits assumed)
Outline: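 Cell membranes for binding came from BHK tk′ts 13 cells harvested approximately 48 hours after transient transfection with the rat receptor.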

[6] = bistrispropane buffer, pH 6.5, read-out: Solubility pH 6.5 Concentration
[7] = bistrispropane buffer, pH 7.5, read-out: Solubility pH 7.5 Concentration
[8] = bistrispropane buffer, pH 6.0, read-out: Solubility pH 6.0 Concentration
[9] = bistrispropane buffer, pH 7.0, read-out: Solubility pH 7.0 Concentration
[10] = bistrispropane buffer, pH 8.0, read-out: Solubility pH 8.0 Concentration
[11] = glycylglycine buffer, pH 3.0, read-out: Solubility pH 3.0 Concentration
[12] = glycylglycine buffer, pH 4.0, read-out: Solubility pH 4.0 Concentration
[13] = glycylglycine buffer, pH 5.0, read-out: Solubility pH 5.0 Concentration
[14] = Table 5, selectivity, hCTR bind IC50 / hAmylin-R bind IC50
[15] = Table 7, human binding selectivity, included for comparison

Row | pEC50 [1] | solubility at 18 h [2, 6] [µM] | solubility at 18 h [2, 7] [µM] | solubility at 18 h [2, 8] [µM] | solubility at 18 h [2, 9] [µM] | solubility at 18 h [2, 10] [µM] | solubility at 18 h [2, 11] [µM] | solubility at 18 h [2, 12] [µM] | solubility at 18 h [2, 13] [µM] | pIC50 [3] | Ratio hCT/hAmylin binding [3, 14] | Ratio hCT/hAmylin binding [3, 15] | pIC50 [4] | Structure (SMILES) | also measured
1 | 9.95 | ≥ 200 | ≥ 200 | ≥ 200 | ≥ 200 | ≥ 200 | ≥ 200 | ≥ 200 | ≥ 200 | 9.98 | 1.0 | 1.0 | 10.00 | CC[C@H](C)[C@H](NC(=O)[C@H](C)NC(=O)CNC(=O)[C@H](Cc1ccccc1)NC(=O)[C@H](CC(N)=O)NC(=O)[C@@H]1CCCN1C(=O)[C@H](CO)NC(=O)[C@H](CO)NC(=O)[C@H](Cc1c[nH]cn1)NC(=O)[C@H](CCCNC(=N)N)NC(=O)[C@H](CC(C)C)NC(=O)[C@H](Cc1ccccc1)NC(=O)[C@H](CCC(=O)O)NC(=O)[C@H](C)NC(=O)[C@H](CC(C)C)NC(=O)[C@H](CCCNC(=N)N)NC(=O)[C@H](CCC(N)=O)NC(=O)[C@@H](NC(=O)[C@H](C)NC(=O)[C@@H]1CSSC[C@H](NC(=O)[C@H](CCCCN)NC(=O)CC[C@H](NC(=O)CCCCCCCCCCCCCCCCCCC(=O)O)C(=O)O)C(=O)N[C@@H](CC(N)=O)C(=O)N[C@@H]([C@@H](C)O)C(=O)N[C@@H](C)C(=O)N[C@@H]([C@@H](C)O)C(=O)N1)[C@@H](C)O)C(=O)N1CCC[C@H]1C(=O)N[C@@H](CO)C(=O)N[C@@H](CO)C(=O)N[C@H](C(=O)N[C@@H](CC(N)=O)C(=O)N[C@H](C(=O)NCC(=O)N[C@@H](CO)C(=O)N[C@@H](CC(=O)O)C(=O)N[C@H](C(=O)N1CCC[C@H]1C(N)=O)[C@@H](C)O)C(C)C)[C@@H](C)O [Example 11] ({C20 diacid-γGlu}-KCNTATCATQRLAEFLRHSSPNFGAIPSSTNVGSDTP-NH2; disulfide 2-7 (inferred)) | 
2 | 10.06 | ≥ 200 | ≥ 200 | ≥ 200 | ≥ 200 | ≥ 200 | ≥ 200 | ≥ 200 | ≥ 200 | 10.14 | 0.5 | 0.5 | 10.42 | CC[C@H](C)[C@H](NC(=O)[C@H](C)NC(=O)CNC(=O)[C@H](Cc1ccccc1)NC(=O)[C@H](CC(N)=O)NC(=O)[C@@H]1CCCN1C(=O)[C@H](CO)NC(=O)[C@H](CO)NC(=O)[C@H](Cc1c[nH]cn1)NC(=O)[C@H](CCCNC(=N)N)NC(=O)[C@H](CC(C)C)NC(=O)[C@H](Cc1ccccc1)NC(=O)[C@H](CCC(=O)O)NC(=O)[C@H](C)NC(=O)[C@H](CC(C)C)NC(=O)[C@H](CCCNC(=N)N)NC(=O)[C@H](CCC(N)=O)NC(=O)[C@@H](NC(=O)[C@H](C)NC(=O)[C@@H]1CSSC[C@H](NC(=O)[C@H](CCCCN)NC(=O)CC[C@H](NC(=O)CCCCCCCCCCCCCCCCCCC(=O)O)C(=O)O)C(=O)N[C@@H](CC(N)=O)C(=O)N[C@@H]([C@@H](C)O)C(=O)N[C@@H](C)C(=O)N[C@@H]([C@@H](C)O)C(=O)N1)[C@@H](C)O)C(=O)N1CCC[C@H]1C(=O)N[C@@H](CO)C(=O)N[C@@H](CO)C(=O)N[C@H](C(=O)N[C@@H](CC(N)=O)C(=O)N[C@H](C(=O)NCC(=O)N[C@@H](CO)C(=O)N[C@@H](CC(N)=O)C(=O)N[C@H](C(=O)N1CCC[C@H]1C(N)=O)[C@@H](C)O)C(C)C)[C@@H](C)O [Example 8] ({C20 diacid-γGlu}-KCNTATCATQRLAEFLRHSSPNFGAIPSSTNVGSNTP-NH2; disulfide 2-7) | 
3 |  | ≥ 200 | 147 (≈ 651 µg/mL) | ≥ 200 | ≥ 200 | 59 (≈ 261 µg/mL) | ≥ 200 | ≥ 200 | ≥ 200 |  | 118.4 | 118.4 |  | CC[C@H](C)[C@H](NC(=O)[C@H](C)NC(=O)CNC(=O)[C@H](Cc1ccccc1)NC(=O)[C@H](CC(N)=O)NC(=O)[C@@H]1CCCN1C(=O)[C@H](CO)NC(=O)[C@H](CO)NC(=O)[C@H](Cc1c[nH]cn1)NC(=O)[C@H](CCCNC(=N)N)NC(=O)[C@H](CC(C)C)NC(=O)[C@H](Cc1ccccc1)NC(=O)[C@H](CC(N)=O)NC(=O)[C@H](C)NC(=O)[C@H](CC(C)C)NC(=O)[C@H](CCCNC(=N)N)NC(=O)[C@H](CCC(N)=O)NC(=O)[C@@H](NC(=O)[C@H](C)NC(=O)[C@@H]1CSSC[C@H](NC(=O)[C@@H](N)CCCCNC(=O)CC[C@H](NC(=O)CCCCCCCCCCCCCCCCCCC(=O)O)C(=O)O)C(=O)N[C@@H](CC(N)=O)C(=O)N[C@@H]([C@@H](C)O)C(=O)N[C@@H](C)C(=O)N[C@@H]([C@@H](C)O)C(=O)N1)[C@@H](C)O)C(=O)N1CCC[C@H]1C(=O)N[C@@H](CO)C(=O)N[C@@H](CO)C(=O)N[C@H](C(=O)N[C@@H](CC(N)=O)C(=O)N[C@H](C(=O)NCC(=O)N[C@@H](Cc1c[nH]cn1)C(=O)N[C@@H](CC(N)=O)C(=O)N[C@H](C(=O)N[C@@H](Cc1ccc(O)cc1)C(N)=O)[C@@H](C)O)C(C)C)[C@@H](C)O [Example 77] | Solubility pH 6.5 Concentration ([2]; pH 6.5 (Table 9a)): ≧200 μM; Solubility pH 7.0 Concentration ([2]; pH 7.0 (Table 9a)): ≧200 μM; Ratio hCT/hAmylin binding ([3]; Table 5a, selectivity, hCTR bind IC50 / hAmylin-R bind IC50): 118.4; Ratio hCT/hAmylin binding ([3]; Table 5b, selectivity, hCTR bind IC50 / hAmylin-R bind IC50): 118.4; Ratio hCT/hAmylin binding ([3]; Table 5c, selectivity, hCTR bind IC50 / hAmylin-R bind IC50): 118.4; Ratio hCT/hAmylin binding ([3]; Table 7a (preferred compounds), human binding selectivity, included for comparison): 118.4; Ratio hCT/hAmylin binding ([3]; ratio of human calcitonin receptor binding IC50 to human amylin receptor binding IC50): 118.4; pIC50 ([5]; Table 7, binding to rat amylin receptor, read-out: rAmylin-R bind IC50): 8.83; Ratio rCT/rAmylin binding ([5]; Table 7, rat binding selectivity, rCTR IC50 / rAmylin-R IC50): 136.8; Ratio rCT/rAmylin binding ([5]; Table 7a (preferred compounds), rat binding selectivity, rCTR IC50 / rAmylin-R IC50): 136.8; Ratio rCT/rAmylin binding ([5]; ratio of rCTR bind IC50 to rAmylin-R bind IC50): 136.8; pIC50 (rat calcitonin receptor): 6.69
